Experimental data from patent US10596169B2, “Cancer treatment with combination of plinabulin and taxane” (BeyondSpring Inc., priority 2013, dated 2020).

What was measured:
[1] = Experimental: (§1) Female nude mice (Hsd: Athymic Nude-Foxn1^nu) between 5 and 6 weeks of age weighing approximately 20 grams were obtained from Harlan, Inc. (Madison, Wis.). MV522 is a conventional human NSC metastatic lung tumor cell line (U.S. Pat. No. 7,700,615 or 7,629,380). Animals were injected subcutaneously (SC) with approximately 1×10^7 MV522 cells harvested from tissue culture. When tumors grew to approximately 105 cubic millimeters (mm^3) in size (3 days following implantation), animals were pair-matched by tumor size into treatment and control groups; each treatment group contained eight mice. Animals were ear-tagged and followed individually throughout the experiment.
(§2) Initial doses were administered on Day 1 following pair-matching. The experiment was carried out as a tumor growth inhibition (TGI) and tumor growth delay (TGD) study. Group 1 endpoint was when tumor volume reached 1.2 cm^3 (TGI) and the treated groups endpoint was when each individual animal's tumor volume reached 1.5 cm^3 (TGD). […] To serve as negative controls, NPI-2358 vehicle and docetaxel vehicle were injected IP on a 2×WKLY×3 schedule and IV on a Q2D×3 schedule, respectively. Docetaxel was administered by intravenous (IV) injection via tail vein at 15 mg/kg once every other day for three treatments (Q2D×3) or at 25 mg/kg on a Q7D×3 schedule (every 7 day for three treatment). Docetaxel and docetaxel vehicle were administered two hours prior to NPI-2358 vehicle and NPI-2358, respectively, in Groups 7-9 and 12-14. For Groups 10, 11, 15, and 16, NPI-2358 was given two hours prior to docetaxel.
Individual and group mean weights ±SD and percent weight change were recorded twice weekly until study completion beginning Day 1. Group weights on Day 42 and weight nadir values are reported.
Animals were observed twice weekly for general moribundity and daily for mortality.

[2] = test system: MV522 human non-small cell lung tumor xenograph model; assay: Example 1: MV522 xenograft, NPI-2358 single agent and with docetaxel (TGI/TGD); assay type: in vivo, athymic nu/nu mice
Experimental: In vivo evaluation of plinabulin (NPI-2358) as a single agent and in combination with docetaxel in the MV522 human non-small cell lung tumor xenograph model in athymic nu/nu mice
The objective of the example was to determine potential additive or synergistic effects of plinabulin in combination with docetaxel in the MV522 model by exploring the scheduling of the drug combination explored by administering one of the agents 2 hours after the first drug was given. Significant endpoints for this experiment included mean tumor growth inhibition (TGI) or regression, tumor growth delay (TGD) in large tumor, weight loss, and mortality.
as §1, §2
Mice were weighed and caliper tumor measurements taken. Tumor growth inhibition (TGI) values were calculated for each group containing treated animals using the formula below: […]
Animals experiencing complete tumor responses or animals experiencing technical or drug-related deaths were censored from final TGI calculations; however animals experiencing partial tumor responses were included in the final TGI calculations. […] TGI values for each treatment group are reported at study completion; these calculations are based on the final study day.
This arm of the study was ended on Day 74 at the sponsor's request. […] Upon TGD study completion, a Median Day of Sacrifice (MDS) was calculated for the control (C) and each treatment (T) group and used to determine tumor growth delay (T-C) using the following equations: MDS=Median [ΣIDS] T−C=MDSTreated−MDSControl
Where IDS (Individual Day of Sacrifice) is the day when each animal reached its tumor volume endpoint (1.5 cm^3); only animals reaching this endpoint were included in TGD calculations. Gross or net log10 cell kill for each treatment group was determined using the following equations: […]

[3] = G5: NPI-2358 3.75 mg/kg IP 2xWKLYx3

## CC(C)(C)c1[nH]cnc1/C=c1\[nH]c(=O)/c(=C/c2ccccc2)[nH]c1=O [NPI-2358]
[1]; [3]
  Final weight (Day 25) % change: +15%
  Final weight (Day 25) mean ± SD: 23 ± 1 g
  Weight nadir % change: 0%
  Weight nadir day: 1
[1]; single agent groups, Example 1, given doses and schedule
  Animal weight loss: No significant animal weight loss
[2]; [3]
  #CR (Day 25): 0/0
  #CR (TGD study): 0/0
  #LTS (long-term survivors): 0
  #PR (Day 25): 0/0
  #PR (TGD study): 0/0
  % TGI: 2%
  Final tumor volume (Day 25) mean ± SEM: 1347 ± 82 mm^3
  Log10 cell kill: 0.0
  T-C (tumor growth delay): 0
[2]; G5: NPI-2358 3.75 mg/kg IP 2xWKLYx3, endpoint 1.5 cm^3
  MDS day ± SD: 29 ± 2 days
[2]; single agent, Example 1
  Tumor volume / tumor burden compared to vehicle control: slight decrease in tumor volume
